According to patent US12723063B2, “GIPR-agonist compounds” (Eli Lilly and Company, priority 2019, dated 2026):
*1 amine or outer side, *2 acyl side, *3 side chain or, on linkers, in order; H or OH if unused. Where a SMILES comes first, the peptide text is derived from it. Side-chain parts run from the residue outwards. [ ]: non-standard residue; d: D form. The star is where a group is joined. C20 diacid = O=C(O)CCCCCCCCCCCCCCCCCCC(=O)*; γGlu = O=C(O)[C@H](CCC(=O)[*:2])N[*:1]; αMeY = C[C@](N)(Cc1ccc(O)cc1)C(=O)O; 4Pal = N[C@@H](Cc1ccncc1)C(=O)O; αMeL = CC(C)C[C@](C)(N)C(=O)O; Orn = NCCC[C@H](N)C(=O)O; AEEA = NCCOCCOCC(=O)O; Aib = CC(C)(N)C(=O)O

Legend:
Assay in all cases: cAMP functional assay (HTRF) in HEK293 cells in presence of 0.1% casein
Type in all cases: cell-based
[1] = biological target: T1, human GLP-1 receptor (GLP-1R) (Homo sapiens, UniProt P43220); details: HEK293 cells expressing human GLP-1R, geometric mean, read-out: hGLP1R cAMP Rel EC50 nM (SEM, n)
T1 construct: expressed in transfected cells; host or cells: HEK293
T1 sequence (P43220 24-463): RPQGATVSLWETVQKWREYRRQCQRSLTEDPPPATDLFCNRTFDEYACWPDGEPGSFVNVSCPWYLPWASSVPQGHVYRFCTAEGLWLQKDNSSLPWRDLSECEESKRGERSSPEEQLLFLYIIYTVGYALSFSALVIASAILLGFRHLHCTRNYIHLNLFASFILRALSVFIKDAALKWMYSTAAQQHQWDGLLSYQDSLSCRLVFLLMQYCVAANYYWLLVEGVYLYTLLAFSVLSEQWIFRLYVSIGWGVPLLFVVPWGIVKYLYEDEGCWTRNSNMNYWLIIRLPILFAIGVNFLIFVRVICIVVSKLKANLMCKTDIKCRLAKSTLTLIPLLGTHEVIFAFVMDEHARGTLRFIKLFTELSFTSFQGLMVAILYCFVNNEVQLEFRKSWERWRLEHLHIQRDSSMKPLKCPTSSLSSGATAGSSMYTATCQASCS

[2] = biological target: T2, human glucagon receptor (GcgR) (Homo sapiens, UniProt P47871); details: HEK293 cells expressing human GcgR, geometric mean, read-out: hGcgR cAMP Rel EC50 nM (SEM, n)
T2 construct: expressed in transfected cells; host or cells: HEK293
T2 sequence (P47871 26-477): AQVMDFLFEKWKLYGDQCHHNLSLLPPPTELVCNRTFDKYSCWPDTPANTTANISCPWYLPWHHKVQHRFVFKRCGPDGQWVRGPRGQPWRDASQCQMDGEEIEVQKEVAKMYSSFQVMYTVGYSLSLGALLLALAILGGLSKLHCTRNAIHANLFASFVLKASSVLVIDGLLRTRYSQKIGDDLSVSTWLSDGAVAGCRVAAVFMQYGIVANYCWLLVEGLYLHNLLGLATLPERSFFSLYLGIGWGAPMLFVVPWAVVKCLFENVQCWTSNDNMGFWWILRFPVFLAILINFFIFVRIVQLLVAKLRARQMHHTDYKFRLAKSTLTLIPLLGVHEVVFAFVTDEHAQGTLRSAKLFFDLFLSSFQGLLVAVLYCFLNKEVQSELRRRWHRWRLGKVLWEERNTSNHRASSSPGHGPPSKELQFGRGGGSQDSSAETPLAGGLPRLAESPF

[3] = biological target: T3, human glucose-dependent insulinotropic peptide receptor (GIPR) (Homo sapiens, UniProt P48546); details: HEK293 cells expressing human GIPR, geometric mean, read-out: hGIPR cAMP Rel EC50 nM (SEM, n)
T3 construct: expressed in transfected cells; host or cells: HEK293
T3 sequence (P48546 22-466): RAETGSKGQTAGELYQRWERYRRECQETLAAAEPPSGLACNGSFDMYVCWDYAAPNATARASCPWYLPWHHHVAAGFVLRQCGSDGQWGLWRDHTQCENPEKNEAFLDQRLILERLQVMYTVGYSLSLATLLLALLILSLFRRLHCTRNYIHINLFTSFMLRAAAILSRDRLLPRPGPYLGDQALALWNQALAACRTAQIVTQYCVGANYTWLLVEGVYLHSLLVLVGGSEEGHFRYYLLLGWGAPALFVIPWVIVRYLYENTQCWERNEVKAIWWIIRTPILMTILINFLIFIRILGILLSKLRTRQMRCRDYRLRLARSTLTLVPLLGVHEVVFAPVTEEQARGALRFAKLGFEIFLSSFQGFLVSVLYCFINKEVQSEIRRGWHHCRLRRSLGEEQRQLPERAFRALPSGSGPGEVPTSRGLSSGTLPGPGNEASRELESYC

Row | Structure (SMILES) | EC50 [1] [nM] | EC50 [2] [nM] | EC50 [3] [nM]
1 | CC[C@H](C)[C@H](NC(=O)[C@H](CO)NC(=O)[C@H](Cc1ccc(O)cc1)NC(=O)[C@H](CC(=O)O)NC(=O)[C@H](CO)NC(=O)[C@@H](NC(=O)[C@H](Cc1ccccc1)NC(=O)[C@@H](NC(=O)CNC(=O)[C@H](CCC(=O)O)NC(=O)C(C)(C)NC(=O)[C@@H](N)Cc1ccc(O)cc1)[C@@H](C)O)[C@@H](C)CC)C(=O)N[C@@H](CC(C)C)C(=O)N[C@@H](CC(C)C)C(=O)N[C@@H](CC(=O)O)C(=O)N[C@@H](CCCCN)C(=O)N[C@@H](CCCCNC(=O)COCCOCCNC(=O)COCCOCCNC(=O)CC[C@H](NC(=O)CCCCCCCCCCCCCCCCC(=O)O)C(=O)O)C(=O)N[C@@H](Cc1c[nH]cn1)C(=O)N[C@@H](CCC(N)=O)C(=O)NC(C)(C)C(=O)N[C@@H](CC(=O)O)C(=O)N[C@@H](Cc1ccccc1)C(=O)N[C@H](C(=O)N[C@@H](CCC(=O)O)C(=O)N[C@@H](Cc1ccncc1)C(=O)N[C@@H](CC(C)C)C(=O)N[C@@H](CC(C)C)C(=O)N[C@@H](C)C(=O)NCC(=O)NCC(=O)N1CCC[C@H]1C(=O)N[C@@H](CO)C(=O)N[C@@H](CO)C(=O)NCC(=O)N[C@@H](C)C(=O)N1CCC[C@H]1C(=O)N1CCC[C@H]1C(=O)N1CCC[C@H]1C(=O)N[C@@H](CO)C(N)=O)C(C)C [Example 22] | > 5000 | 1250 | 0.0345
2 | CC[C@H](C)[C@H](NC(=O)[C@H](CCCCN)NC(=O)[C@H](CC(=O)O)NC(=O)[C@H](CC(C)C)NC(=O)[C@](C)(CC(C)C)NC(=O)[C@@H](NC(=O)[C@H](CO)NC(=O)[C@H](Cc1ccc(O)cc1)NC(=O)[C@H](CC(=O)O)NC(=O)[C@H](CO)NC(=O)[C@@H](NC(=O)[C@H](Cc1ccccc1)NC(=O)[C@@H](NC(=O)CNC(=O)[C@H](CCC(=O)O)NC(=O)C(C)(C)NC(=O)[C@@H](N)Cc1ccc(O)cc1)[C@@H](C)O)[C@@H](C)CC)[C@@H](C)CC)C(=O)N[C@@H](Cc1c[nH]cn1)C(=O)N[C@@H](CCC(N)=O)C(=O)NC(C)(C)C(=O)N[C@@H](CC(=O)O)C(=O)N[C@@H](Cc1ccccc1)C(=O)N[C@H](C(=O)N[C@@H](CCC(=O)O)C(=O)N[C@@H](Cc1ccncc1)C(=O)N[C@@H](CCCCNC(=O)COCCOCCNC(=O)COCCOCCNC(=O)CC[C@H](NC(=O)CCCCCCCCCCCCCCCCCCC(=O)O)C(=O)O)C(=O)N[C@@H](CC(C)C)C(=O)N[C@@H](CCC(=O)O)C(=O)NCC(=O)NCC(=O)N1CCC[C@H]1C(=O)N[C@@H](CO)C(=O)N[C@@H](CO)C(=O)NCC(=O)N[C@@H](C)C(=O)N1CCC[C@H]1C(=O)N1CCC[C@H]1C(=O)N1CCC[C@H]1C(=O)N[C@@H](CO)C(N)=O)C(C)C [Example 109] (H-Y[Aib]EGTFISDYSI[αMeL]LDKIHQ[Aib]DFVE[4Pal]K([AEEA-AEEA-γGlu-C20 diacid])LEGGPSSGAPPPS-NH2) | > 5000 | > 5000 | 0.0113
3 | CC[C@H](C)[C@H](NC(=O)[C@H](CCCN)NC(=O)[C@H](CC(=O)O)NC(=O)[C@H](CC(C)C)NC(=O)[C@](C)(CC(C)C)NC(=O)[C@@H](NC(=O)[C@H](CO)NC(=O)[C@H](Cc1ccc(O)cc1)NC(=O)[C@H](CC(=O)O)NC(=O)[C@H](CO)NC(=O)[C@@H](NC(=O)[C@H](Cc1ccccc1)NC(=O)[C@@H](NC(=O)CNC(=O)[C@H](CCC(=O)O)NC(=O)C(C)(C)NC(=O)[C@@H](N)Cc1ccc(O)cc1)[C@@H](C)O)[C@@H](C)CC)[C@@H](C)CC)C(=O)N[C@@H](Cc1c[nH]cn1)C(=O)N[C@@H](CCC(N)=O)C(=O)NC(C)(C)C(=O)N[C@@H](CCC(=O)O)C(=O)N[C@@H](Cc1ccccc1)C(=O)N[C@H](C(=O)N[C@@H](CCC(=O)O)C(=O)N[C@@H](Cc1ccc(O)cc1)C(=O)N[C@@H](CCCCNC(=O)COCCOCCNC(=O)COCCOCCNC(=O)CC[C@H](NC(=O)CCCCCCCCCCCCCCCCCCC(=O)O)C(=O)O)C(=O)N[C@@H](CC(C)C)C(=O)N[C@@H](CCC(=O)O)C(=O)N[C@@H](CCC(N)=O)C(=O)NCC(=O)N1CCC[C@H]1C(=O)N[C@@H](CO)C(=O)N[C@@H](CO)C(=O)NCC(=O)N[C@@H](C)C(=O)N1CCC[C@H]1C(=O)N1CCC[C@H]1C(=O)N1CCC[C@H]1C(=O)N[C@@H](CO)C(N)=O)C(C)C [Example 106] (H-Y[Aib]EGTFISDYSI[αMeL]LD[Orn]IHQ[Aib]EFVEYK([AEEA-AEEA-γGlu-C20 diacid])LEQGPSSGAPPPS-NH2) | > 5000 | > 5000 | 0.014
4 | CC[C@H](C)[C@H](NC(=O)[C@H](CO)NC(=O)[C@H](Cc1ccc(O)cc1)NC(=O)[C@H](CC(=O)O)NC(=O)[C@H](CO)NC(=O)[C@@H](NC(=O)[C@H](Cc1ccccc1)NC(=O)[C@@H](NC(=O)CNC(=O)[C@H](CCC(=O)O)NC(=O)[C@@H](C)NC(=O)[C@@H](N)Cc1ccc(O)cc1)[C@@H](C)O)[C@@H](C)CC)C(=O)N[C@@H](CC(C)C)C(=O)N[C@@H](CC(C)C)C(=O)N[C@@H](CC(=O)O)C(=O)N[C@@H](CCCCN)C(=O)N[C@@H](CCCCNC(=O)COCCOCCNC(=O)COCCOCCNC(=O)CC[C@H](NC(=O)CCCCCCCCCCCCCCCCCCC(=O)O)C(=O)O)C(=O)N[C@@H](C)C(=O)N[C@@H](CCC(N)=O)C(=O)NC(C)(C)C(=O)N[C@@H](CC(=O)O)C(=O)N[C@@H](Cc1ccccc1)C(=O)N[C@H](C(=O)N[C@@H](CC(N)=O)C(=O)N[C@@H](Cc1c[nH]c2ccccc12)C(=O)N[C@@H](CC(C)C)C(=O)N[C@@H](CC(C)C)C(=O)N[C@@H](C)C(=O)N[C@@H](CCC(N)=O)C(=O)NCC(=O)N1CCC[C@H]1C(=O)N[C@@H](CO)C(=O)N[C@@H](CO)C(=O)NCC(=O)N[C@@H](C)C(=O)N1CCC[C@H]1C(=O)N1CCC[C@H]1C(=O)N1CCC[C@H]1C(=O)N[C@@H](CO)C(N)=O)C(C)C [Example 1] | > 5000 | 575 | 0.0476
5 | CC[C@H](C)[C@H](NC(=O)[C@H](CO)NC(=O)[C@H](Cc1ccc(O)cc1)NC(=O)[C@H](CC(=O)O)NC(=O)[C@H](CO)NC(=O)[C@@H](NC(=O)[C@H](Cc1ccccc1)NC(=O)[C@@H](NC(=O)CNC(=O)[C@H](CCC(=O)O)NC(=O)C(C)(C)NC(=O)[C@@H](N)Cc1ccc(O)cc1)[C@@H](C)O)[C@@H](C)CC)C(=O)N[C@@H](CC(C)C)C(=O)N[C@@H](CC(C)C)C(=O)N[C@@H](CC(=O)O)C(=O)N[C@@H](CCCCN)C(=O)N[C@@H](CCCCNC(=O)COCCOCCNC(=O)COCCOCCNC(=O)CC[C@H](NC(=O)CCCCCCCCCCCCCCCCCCC(=O)O)C(=O)O)C(=O)N[C@@H](C)C(=O)N[C@@H](CCC(N)=O)C(=O)NC(C)(C)C(=O)N[C@@H](CC(=O)O)C(=O)N[C@@H](Cc1ccccc1)C(=O)N[C@H](C(=O)N[C@@H](CC(N)=O)C(=O)N[C@@H](Cc1c[nH]c2ccccc12)C(=O)N[C@@H](CC(C)C)C(=O)N[C@@H](CC(C)C)C(=O)N[C@@H](C)C(=O)N[C@@H](CCC(N)=O)C(=O)NCC(=O)N1CCC[C@H]1C(=O)N[C@@H](CO)C(=O)N[C@@H](CO)C(=O)NCC(=O)N[C@@H](C)C(=O)N1CCC[C@H]1C(=O)N1CCC[C@H]1C(=O)N1CCC[C@H]1C(=O)N[C@@H](CO)C(N)=O)C(C)C [Example 8] (H-Y[Aib]EGTFISDYSILLDKK([AEEA-AEEA-γGlu-C20 diacid])AQ[Aib]DFVNWLLAQGPSSGAPPPS-NH2) | > 5000 | 295 | 0.0268
6 | CC[C@H](C)[C@H](NC(=O)[C@H](Cc1ccccc1)NC(=O)[C@@H](NC(=O)CNC(=O)[C@H](CCC(=O)O)NC(=O)C(C)(C)NC(=O)[C@@H](N)Cc1ccc(O)cc1)[C@@H](C)O)C(=O)N[C@@H](CO)C(=O)N[C@@H](CC(=O)O)C(=O)N[C@@H](Cc1ccc(O)cc1)C(=O)N[C@@H](CO)C(=O)N[C@H](C(=O)N[C@@](C)(CC(C)C)C(=O)N[C@@H](CC(C)C)C(=O)N[C@@H](CC(=O)O)C(=O)N[C@@H](CCCCN)C(=O)N[C@@H](CCCCNC(=O)COCCOCCNC(=O)COCCOCCNC(=O)CC[C@H](NC(=O)CCCCCCCCCCCCCCCCCCC(=O)O)C(=O)O)C(=O)N[C@@H](Cc1c[nH]cn1)C(=O)N[C@@H](CCC(N)=O)C(=O)NC(C)(C)C(=O)N[C@@H](CC(=O)O)C(=O)N[C@@H](Cc1ccccc1)C(=O)N[C@H](C(=O)N[C@@H](CCC(=O)O)C(=O)N[C@@](C)(Cc1ccc(O)cc1)C(=O)N[C@@H](CC(C)C)C(=O)N[C@@H](CC(C)C)C(=O)N[C@@H](CCC(=O)O)C(=O)NCC(=O)NCC(=O)N1CCC[C@H]1C(=O)N[C@@H](CO)C(=O)N[C@@H](CO)C(=O)NCC(=O)N[C@@H](C)C(=O)N1CCC[C@H]1C(=O)N1CCC[C@H]1C(=O)N1CCC[C@H]1C(=O)N[C@@H](CO)C(N)=O)C(C)C)[C@@H](C)CC [Example 91] (H-Y[Aib]EGTFISDYSI[αMeL]LDKK([AEEA-AEEA-γGlu-C20 diacid])HQ[Aib]DFVE[αMeY]LLEGGPSSGAPPPS-NH2) | 530 | 289 | 0.0321
